#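 Cultured in 96-well plates, cells were exposed to test compound for 48 hours across five concentrations. GI50: concentration for 50% inhibition of growth.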 Calls of active or inactive are those of the source. Cut-off read from the data, not from the text of the source: active = GI50 up to about 1.1 µM and inactive = higher.
# Experiments:
# Experiment in all cases: growth of human tumour cells (NCI), 48 h
# [1] = test system: UACC-257
# [2] = test system: NCI-H460
# [3] = test system: U-251
# [4] = test system: SN12C
# [5] = test system: Hs-578T
# [6] = test system: ACHN
# [7] = test system: HT-29
# [8] = test system: SNB-75
# [9] = test system: HOP-62
# [10] = test system: NCI-H23
# [11] = test system: CAKI-1
# [12] = test system: SF-539
# [13] = test system: HOP-92
# [14] = test system: EKVX
# [15] = test system: OVCAR-5
# [16] = test system: NCI/ADR-RES
# [17] = test system: RPMI-8226
# [18] = test system: DU-145
# [19] = test system: UACC-62
# [20] = test system: M14
# [21] = test system: UO-31
# [22] = test system: A498
# [23] = test system: SK-MEL-5
# [24] = test system: HCT-116
# [25] = test system: OVCAR-3
# [26] = test system: OVCAR-8
# [27] = test system: NCI-H226
# [28] = test system: MOLT-4
# [29] = test system: CCRF-CEM
# [30] = test system: MCF7
# [31] = test system: 786-0
# [32] = test system: SK-OV-3
# [33] = test system: SW-620
# [34] = test system: K562
# [35] = test system: MDA-MB-435
# [36] = test system: RXF 393
# [37] = test system: HCT-15
# [38] = test system: COLO 205
# [39] = test system: SF-268
# [40] = test system: SF-295
# [41] = test system: HCC 2998
# [42] = test system: HL-60
# [43] = test system: IGROV-1
# [44] = test system: SR
# [45] = test system: TK-10
# [46] = test system: SK-MEL-28
# [47] = test system: SNB-19
# [48] = test system: A549
# [49] = test system: SK-MEL-2
# [50] = test system: MDA-MB-231
# [51] = test system: LOX IMVI
# [52] = test system: OVCAR-4
# [53] = test system: KM12
# [54] = test system: NCI-H522
# [55] = test system: MDA-N
# [56] = test system: Malme-3M
# [57] = test system: T47D
smiles,measurement,setting,value
c1csc(-c2ccc(-c3ccc(-c4ccc(-c5cccs5)s4)s3)s2)c1,GI50,[1],> 100 µM (inactive)
same,GI50,[2],> 100 µM (inactive)
same,GI50,[3],> 100 µM (inactive)
same,GI50,[4],> 100 µM (inactive)
same,GI50,[5],> 100 µM (inactive)
same,GI50,[6],> 100 µM (inactive)
same,GI50,[7],> 100 µM (inactive)
same,GI50,[8],> 100 µM (inactive)
same,GI50,[9],34 µM (inactive)
same,GI50,[10],> 100 µM (inactive)
same,GI50,[11],> 100 µM (inactive)
same,GI50,[12],> 100 µM (inactive)
same,GI50,[13],> 100 µM (inactive)
same,GI50,[14],> 100 µM (inactive)
same,GI50,[15],> 100 µM (inactive)
same,GI50,[16],> 100 µM (inactive)
same,GI50,[17],> 100 µM (inactive)
same,GI50,[18],> 100 µM (inactive)
same,GI50,[19],> 100 µM (inactive)
same,GI50,[20],26.9 µM (inactive)
same,GI50,[21],> 100 µM (inactive)
same,GI50,[22],> 100 µM (inactive)
same,GI50,[23],> 100 µM (inactive)
same,GI50,[24],> 100 µM (inactive)
same,GI50,[25],> 100 µM (inactive)
same,GI50,[26],> 100 µM (inactive)
same,GI50,[27],> 100 µM (inactive)
same,GI50,[28],31.6 µM (inactive)
same,GI50,[29],26.5 µM (inactive)
same,GI50,[30],8.36 µM (inactive)
same,GI50,[31],> 100 µM (inactive)
same,GI50,[32],> 100 µM (inactive)
same,GI50,[33],> 100 µM (inactive)
same,GI50,[34],47.1 µM (inactive)
same,GI50,[35],> 100 µM (inactive)
same,GI50,[36],56.5 µM (inactive)
same,GI50,[37],> 100 µM
same,GI50,[38],> 100 µM (inactive)
same,GI50,[39],> 100 µM (inactive)
same,GI50,[40],40.6 µM (inactive)
same,GI50,[41],> 100 µM (inactive)
same,GI50,[42],14.8 µM (inactive)
same,GI50,[43],> 100 µM (inactive)
same,GI50,[44],35.7 µM (inactive)
same,GI50,[45],> 100 µM (inactive)
C=C1C(=O)O[C@H]2C1C[C@H](O)/C(C)=C/CC[C@@]1(C)O[C@H]21 (some centres not stated),GI50,[1],16.7 µM (inactive)
same,GI50,[46],23.8 µM (inactive)
same,GI50,[2],> 10 µM (inactive)
same,GI50,[3],> 100 µM (inactive)
same,GI50,[4],18.2 µM (inactive)
same,GI50,[47],60.1 µM (inactive)
same,GI50,[48],> 100 µM (inactive)
same,GI50,[5],23.6 µM (inactive)
same,GI50,[6],8.38 µM (inactive)
same,GI50,[7],23.3 µM (inactive)
same,GI50,[8],32.3 µM (inactive)
same,GI50,[9],33.7 µM (inactive)
same,GI50,[10],19 µM (inactive)
same,GI50,[11],14.5 µM (inactive)
same,GI50,[13],17.3 µM (inactive)
same,GI50,[14],19 µM (inactive)
same,GI50,[15],19.1 µM (inactive)
same,GI50,[16],14.6 µM (inactive)
same,GI50,[17],5.2 µM (inactive)
same,GI50,[18],21.2 µM (inactive)
same,GI50,[19],10.9 µM (inactive)
same,GI50,[20],10.4 µM (inactive)
same,GI50,[21],14.8 µM (inactive)
same,GI50,[23],10.7 µM (inactive)
same,GI50,[24],14.8 µM (inactive)
same,GI50,[26],18 µM (inactive)
same,GI50,[28],2.59 µM (inactive)
same,GI50,[49],15.2 µM (inactive)
same,GI50,[50],18.9 µM (inactive)
same,GI50,[51],9.29 µM (inactive)
same,GI50,[29],3.04 µM (inactive)
same,GI50,[52],14.1 µM (inactive)
same,GI50,[30],13.2 µM (inactive)
same,GI50,[31],16.9 µM (inactive)
same,GI50,[32],36.5 µM (inactive)
same,GI50,[33],2.09 µM (inactive)
same,GI50,[34],8.53 µM (inactive)
same,GI50,[35],17.8 µM (inactive)
same,GI50,[36],15 µM (inactive)
same,GI50,[53],14.7 µM (inactive)
same,GI50,[37],12.2 µM
same,GI50,[38],0.782 µM (active)
same,GI50,[39],29.4 µM (inactive)
same,GI50,[40],31.5 µM (inactive)
same,GI50,[41],14.4 µM (inactive)
same,GI50,[54],1.69 µM (inactive)
same,GI50,[55],13.7 µM (inactive)
same,GI50,[56],6.14 µM (inactive)
same,GI50,[43],14.8 µM (inactive)
same,GI50,[44],6.04 µM (inactive)
same,GI50,[45],15.6 µM (inactive)
CN(C)c1ccc(-c2[nH]c(=O)c3ccccc3[n+]2C)cc1,GI50,[1],30.5 µM (inactive)
same,GI50,[46],> 100 µM (inactive)
same,GI50,[2],> 100 µM (inactive)
same,GI50,[3],> 100 µM (inactive)
same,GI50,[4],> 100 µM (inactive)
same,GI50,[47],> 100 µM (inactive)
same,GI50,[48],> 100 µM (inactive)
same,GI50,[5],> 100 µM (inactive)
same,GI50,[6],62.5 µM (inactive)
same,GI50,[7],63.4 µM (inactive)
same,GI50,[8],> 100 µM (inactive)
same,GI50,[9],> 100 µM (inactive)
same,GI50,[10],60 µM (inactive)
same,GI50,[12],> 100 µM (inactive)
same,GI50,[13],60.7 µM (inactive)
same,GI50,[14],88.9 µM (inactive)
same,GI50,[15],44.2 µM (inactive)
same,GI50,[16],39.1 µM (inactive)
same,GI50,[17],63.2 µM (inactive)
same,GI50,[18],> 100 µM (inactive)
same,GI50,[19],47.5 µM (inactive)
same,GI50,[57],41.3 µM (inactive)
same,GI50,[20],41.3 µM (inactive)
same,GI50,[21],39.4 µM (inactive)
same,GI50,[22],99.1 µM (inactive)
same,GI50,[23],36.6 µM (inactive)
same,GI50,[24],93.8 µM (inactive)
same,GI50,[26],> 100 µM (inactive)
same,GI50,[27],40.6 µM (inactive)
same,GI50,[28],51.9 µM (inactive)
same,GI50,[50],> 100 µM (inactive)
same,GI50,[29],> 100 µM (inactive)
same,GI50,[52],60.1 µM (inactive)
same,GI50,[30],46.7 µM (inactive)
same,GI50,[31],> 100 µM (inactive)
same,GI50,[32],> 100 µM (inactive)
same,GI50,[33],> 100 µM (inactive)
same,GI50,[34],58.6 µM (inactive)
same,GI50,[35],63.8 µM (inactive)
same,GI50,[36],> 100 µM (inactive)
same,GI50,[53],55.5 µM (inactive)
same,GI50,[37],> 100 µM
same,GI50,[38],62.2 µM (inactive)
same,GI50,[39],> 100 µM (inactive)
same,GI50,[40],> 100 µM (inactive)
same,GI50,[41],> 100 µM (inactive)
same,GI50,[42],83.8 µM (inactive)
same,GI50,[56],47.6 µM (inactive)
same,GI50,[43],> 100 µM (inactive)
same,GI50,[44],49.4 µM (inactive)
same,GI50,[45],> 100 µM (inactive)

# Reference: ChEMBL document CHEMBL1201862, “PubChem BioAssay data set” (2004)
